The values that follow are results of earlier work, collected in US9789102B2, “H3 receptor antagonist for use in the treatment of alzheimer's disease” (SANOFI, priority 2012, dated 2017).

The test system of the series is protein tau hyperphosphorylation. To be noted: 2-week treatment; TAPP transgenic mice; histopathological studies; cited from earlier work.

As for `C[C@@H]1CCCN1CCc1cc2cc(-c3ccc(C#N)cc3)ccc2o1` [ABT-239], the “protein tau hyperphosphorylation in the spinal cord and hippocampus” value is reported as “effect”.
